Assay results reported in ChEMBL document CHEMBL3871302, “Synthesis of novel steroidal agonists, partial agonists, and antagonists for the glucocorticoid receptor” (Bioorg Med Chem Lett, 2017).
Activity calls are given as the source filed them. The calls are words filed in the database; no cut-off is given here.

Tests used:
Format in all cases: cell-based
[1] = biological target: T1, Glucocorticoid receptor (Homo sapiens) (UniProt P04150); test: (§1) Agonist activity at GR in human HepG2 cells assessed as protein mediated-transcriptional activity by MMTV-promoter driven luciferase reporter gene assay
T1 sequence (whole entry): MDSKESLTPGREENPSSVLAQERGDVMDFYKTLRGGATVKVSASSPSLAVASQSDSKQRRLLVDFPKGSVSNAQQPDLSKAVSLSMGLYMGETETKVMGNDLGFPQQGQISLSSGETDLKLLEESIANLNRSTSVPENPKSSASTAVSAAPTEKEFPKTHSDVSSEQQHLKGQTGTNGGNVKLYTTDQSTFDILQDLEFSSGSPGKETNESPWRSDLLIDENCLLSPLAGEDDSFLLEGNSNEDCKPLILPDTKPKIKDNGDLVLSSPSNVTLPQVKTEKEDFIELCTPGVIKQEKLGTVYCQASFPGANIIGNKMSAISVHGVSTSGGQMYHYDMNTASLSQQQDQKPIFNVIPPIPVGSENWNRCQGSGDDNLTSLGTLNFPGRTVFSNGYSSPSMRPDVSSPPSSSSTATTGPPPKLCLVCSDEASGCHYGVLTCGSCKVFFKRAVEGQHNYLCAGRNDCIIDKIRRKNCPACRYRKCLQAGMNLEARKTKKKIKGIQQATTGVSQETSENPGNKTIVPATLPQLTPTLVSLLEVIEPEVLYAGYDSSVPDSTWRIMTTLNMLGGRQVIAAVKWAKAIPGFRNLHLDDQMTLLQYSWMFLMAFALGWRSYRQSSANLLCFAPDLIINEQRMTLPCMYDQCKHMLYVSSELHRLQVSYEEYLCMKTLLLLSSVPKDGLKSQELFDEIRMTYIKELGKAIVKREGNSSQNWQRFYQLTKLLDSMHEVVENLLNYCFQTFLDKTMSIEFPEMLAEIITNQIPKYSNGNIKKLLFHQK

[2] = biological target: T1, Glucocorticoid receptor (Homo sapiens); test: (§2) Antagonist activity at GR in human HepG2 cells assessed as inhibition of protein mediated-transcriptional activity by MMTV-promoter driven luciferase reporter gene assay
[3] = biological target: T2, Glucocorticoid receptor (Mus musculus) (UniProt P06537); test: Antagonist activity at GR in mouse C2C12 cells assessed as increase in LPS-induced IL6 production by alphaLISA assay relative to control; set-up: scale not given: the % may be the effect or the level left
T2 sequence (whole entry): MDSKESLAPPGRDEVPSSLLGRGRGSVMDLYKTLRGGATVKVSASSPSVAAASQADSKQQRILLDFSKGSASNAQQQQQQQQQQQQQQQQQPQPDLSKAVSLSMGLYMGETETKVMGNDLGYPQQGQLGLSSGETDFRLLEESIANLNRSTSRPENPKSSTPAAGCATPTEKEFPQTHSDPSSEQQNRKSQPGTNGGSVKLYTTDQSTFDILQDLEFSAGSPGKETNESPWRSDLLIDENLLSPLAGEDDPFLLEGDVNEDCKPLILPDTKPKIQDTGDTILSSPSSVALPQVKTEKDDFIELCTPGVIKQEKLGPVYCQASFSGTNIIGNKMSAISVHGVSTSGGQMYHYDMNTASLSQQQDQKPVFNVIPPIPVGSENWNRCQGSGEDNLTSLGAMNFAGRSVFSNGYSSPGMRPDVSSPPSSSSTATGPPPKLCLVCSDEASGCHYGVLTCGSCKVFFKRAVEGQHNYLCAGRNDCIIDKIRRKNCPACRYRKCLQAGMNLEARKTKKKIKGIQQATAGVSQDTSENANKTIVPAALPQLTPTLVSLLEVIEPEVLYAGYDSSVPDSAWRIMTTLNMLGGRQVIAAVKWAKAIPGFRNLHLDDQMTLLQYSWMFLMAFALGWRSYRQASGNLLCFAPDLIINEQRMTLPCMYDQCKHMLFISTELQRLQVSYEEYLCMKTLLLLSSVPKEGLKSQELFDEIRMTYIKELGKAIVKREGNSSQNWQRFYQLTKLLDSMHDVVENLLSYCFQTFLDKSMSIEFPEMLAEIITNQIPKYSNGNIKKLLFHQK

Glucocorticoid receptor [4] = biological target: T3, Glucocorticoid receptor (Homo sapiens, UniProt P04150); test: as §2
T3 sequence (P04150 whole entry): T1 sequence (whole entry)

[5] = biological target: T2, Glucocorticoid receptor (Mus musculus); test: Agonist activity at GR in mouse C2C12 cells assessed as suppression of LPS-induced IL6 production by alphaLISA assay
Glucocorticoid receptor [6] = biological target: T3, Glucocorticoid receptor; test: as §1
[7] = biological target: T1, Glucocorticoid receptor (Homo sapiens); test: Antagonist activity at GR in human HepG2 cells assessed as inhibition of protein mediated-transcriptional activity at 10 uM by MMTV-promoter driven luciferase reporter gene assay

SMILES	Efficacy [1] [%]	Efficacy [2] [%]	Activity [3]	IC50 (Glucocorticoid receptor [4]) [nM]	Activity [5]	EC50 (Glucocorticoid receptor [6]) [nM]	Efficacy [7] [%]
Cc1ncccc1NC(=O)c1ccc2c(c1)CC[C@@H]1[C@@H]2[C@@H](O)C[C@@]2(C)[C@H]1CC[C@]2(C)O	-0.5	112	Active				
CC#C[C@]1(O)CC[C@H]2[C@@H]3CCc4cc(C(=O)Nc5cnccc5C)ccc4[C@H]3[C@@H](O)C[C@@]21C	73	147			Active	240	
Cc1ncccc1NC(=O)c1ccc2c(c1)CC[C@@H]1[C@@H]2[C@@H](O)C[C@@]2(C)[C@H]1CC[C@@]2(O)C#C[Si](C)(C)C	110	90	Active			47	
CC#C[C@]1(O)CC[C@H]2[C@@H]3CCc4cc(C(=O)Nc5cncc(C)c5)ccc4[C@H]3[C@@H](O)C[C@@]21C	-0.1		Active				22
CC#C[C@]1(O)CC[C@H]2[C@@H]3CCc4cc(C(=O)Nc5ncccc5C)ccc4[C@H]3[C@@H](O)C[C@@]21C	92	239			Active	280	
CC#C[C@]1(O)CC[C@H]2[C@@H]3CCc4cc(C(=O)Nc5cccnc5C)ccc4[C@H]3[C@@H](OCc3cccc(Cl)c3)C[C@@]21C	0.2	-0.3		0.9	Active		
CC#C[C@]1(O)CC[C@H]2[C@@H]3CCc4cc(C(=O)Nc5ccncc5C)ccc4[C@H]3[C@@H](O)C[C@@]21C	12	23	Active	1360		149	
C#C[C@]1(O)CC[C@H]2[C@@H]3CCc4cc(C(=O)Nc5cccnc5C)ccc4[C@H]3[C@@H](O)C[C@@]21C	3.2	96	Active				
CCCCC#C[C@]1(O)CC[C@H]2[C@@H]3CCc4cc(C(=O)Nc5cccnc5C)ccc4[C@H]3[C@@H](O)C[C@@]21C	56	74	Active	2350		100	
CC#C[C@]1(O)CC[C@H]2[C@@H]3CCc4cc(C(=O)Nc5cccnc5C)ccc4C3=CC[C@@]21C	51.6	30.6			Active	1860	
CC#C[C@]1(O)CC[C@H]2[C@@H]3CCc4cc(C(=O)Nc5cccnc5C)ccc4[C@H]3[C@@H](OCc3ccccc3Cl)C[C@@]21C	0.6	1.7		1.4	Active		
Cc1ncccc1NC(=O)c1ccc2c(c1)CC[C@@H]1[C@@H]2[C@@H](O)C[C@@]2(C)[C@H]1CC[C@@]2(O)C#Cc1ccccc1	2.1	1.4	Active	558			
Cc1ncccc1NC(=O)c1ccc2c(c1)CC[C@@H]1[C@@H]2[C@@H](O)C[C@]2(C)[C@@H](O)CC[C@@H]12	0.4	85	Active				
CC#C[C@]1(O)CC[C@H]2[C@@H]3CCc4cc(C(=O)Nc5cccnc5)ccc4[C@H]3[C@@H](O)C[C@@]21C	0.2	10	50%	455			
Cc1ncccc1NC(=O)c1ccc2c(c1)CC[C@@H]1[C@@H]2[C@@H](O)C[C@@]2(C)[C@H]1CC[C@@]2(O)C#CC(C)C	28	39	Active	37		> 5000	

Results, then the compound that gave them:

Efficacy [1] [%]	Efficacy [2] [%]	Activity [3]	IC50 (Glucocorticoid receptor [4]) [nM]	Activity [5]	EC50 (Glucocorticoid receptor [6]) [nM]	Efficacy [7] [%]	SMILES
-0.4	-0.1		0.4	Active			CC#C[C@]1(O)CC[C@H]2[C@@H]3CCc4cc(C(=O)Nc5cccnc5C)ccc4[C@H]3[C@@H](OCc3ccccc3)C[C@@]21C
56	57		0.03	Active	0.11		C=CCO[C@H]1C[C@@]2(C)[C@@H](CC[C@@]2(O)C#CC)[C@@H]2CCc3cc(C(=O)Nc4cccnc4C)ccc3[C@H]21
19.4	55			Active			CC#C[C@]1(O)CC[C@H]2[C@@H]3CCc4cc(C(=O)Nc5cccnc5C)ccc4[C@H]3[C@H](O)C[C@@]21C
2.4	-0.7		84	Active			C=CCOC(=O)O[C@H]1C[C@@]2(C)[C@@H](CC[C@@]2(O)C#CC)[C@@H]2CCc3cc(C(=O)Nc4cccnc4C)ccc3[C@H]21
71	84			Active	0.04		CC#C[C@]1(O)CC[C@H]2[C@@H]3CCc4cc(C(=O)Nc5cccnc5C)ccc4[C@H]3[C@@H](OC)C[C@@]21C
35	46		626	Active	265		CC#C[C@]1(O)CC[C@H]2[C@@H]3CCc4cc(C(=O)Nc5cccnc5C)ccc4[C@H]3[C@@H](O)C[C@@]21C
67	73			Active	0.05		CC#C[C@]1(O)CC[C@H]2[C@@H]3CCc4cc(C(=O)Nc5cccnc5C)ccc4[C@H]3[C@@H](OCC)C[C@@]21C
-0.2	0.06		0.07	Active			CC#C[C@]1(O)CC[C@H]2[C@@H]3CCc4cc(C(=O)Nc5cccnc5C)ccc4[C@H]3[C@@H](OCc3ccc(Cl)cc3)C[C@@]21C
